Patent publication US8791267B2, “Biaryl PDE4 inhibitors for treating inflammatory, cardiovascular and CNS disorders” (Decode Genetics EHF, priority 2007, dated 2014)
Counter-ions that a name gives are not always drawn. Like-named read-outs stand apart in the source and are kept apart here.

Tests used:
[1] = target: PDE4 (Homo sapiens, UniProt Q08499); assay: In-vitro assay for PDE4 enzymes, real-time enzyme-coupled spectrophotometric assay (Table 9); assay type: biochemical
[2] = target: PDE4B (Homo sapiens, UniProt Q07343); assay: In-vitro assay for PDE4 enzymes, real-time enzyme-coupled spectrophotometric assay, PDE4B Activity (Table 10); assay type: biochemical
[3] = human PDE4D, activity class, Table 9, read-out: hPDE4D
[4] = human PDE4B (hPDE4B), enzyme-coupled spectrophotometric assay, read-out: PDE4B Activity, hPDE4B

PDE4B, sequence (Q07343 whole entry): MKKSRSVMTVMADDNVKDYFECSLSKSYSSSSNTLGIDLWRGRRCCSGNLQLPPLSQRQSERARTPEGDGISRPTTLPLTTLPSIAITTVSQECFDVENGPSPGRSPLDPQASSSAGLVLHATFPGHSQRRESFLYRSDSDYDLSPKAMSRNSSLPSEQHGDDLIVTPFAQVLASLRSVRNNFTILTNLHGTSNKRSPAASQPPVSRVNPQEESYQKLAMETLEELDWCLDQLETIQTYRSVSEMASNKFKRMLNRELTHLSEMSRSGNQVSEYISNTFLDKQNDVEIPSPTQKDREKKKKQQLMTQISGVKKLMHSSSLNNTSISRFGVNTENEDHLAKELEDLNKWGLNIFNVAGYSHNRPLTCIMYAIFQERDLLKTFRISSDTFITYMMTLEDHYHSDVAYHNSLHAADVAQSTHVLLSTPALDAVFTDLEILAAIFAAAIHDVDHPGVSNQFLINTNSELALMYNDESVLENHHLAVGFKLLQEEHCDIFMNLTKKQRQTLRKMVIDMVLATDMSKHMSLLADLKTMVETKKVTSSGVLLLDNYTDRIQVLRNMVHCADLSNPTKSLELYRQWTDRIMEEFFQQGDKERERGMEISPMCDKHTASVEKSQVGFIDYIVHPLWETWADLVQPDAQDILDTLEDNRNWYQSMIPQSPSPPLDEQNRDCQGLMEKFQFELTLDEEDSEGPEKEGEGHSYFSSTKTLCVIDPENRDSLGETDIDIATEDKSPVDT
PDE4, sequence (Q08499 whole entry): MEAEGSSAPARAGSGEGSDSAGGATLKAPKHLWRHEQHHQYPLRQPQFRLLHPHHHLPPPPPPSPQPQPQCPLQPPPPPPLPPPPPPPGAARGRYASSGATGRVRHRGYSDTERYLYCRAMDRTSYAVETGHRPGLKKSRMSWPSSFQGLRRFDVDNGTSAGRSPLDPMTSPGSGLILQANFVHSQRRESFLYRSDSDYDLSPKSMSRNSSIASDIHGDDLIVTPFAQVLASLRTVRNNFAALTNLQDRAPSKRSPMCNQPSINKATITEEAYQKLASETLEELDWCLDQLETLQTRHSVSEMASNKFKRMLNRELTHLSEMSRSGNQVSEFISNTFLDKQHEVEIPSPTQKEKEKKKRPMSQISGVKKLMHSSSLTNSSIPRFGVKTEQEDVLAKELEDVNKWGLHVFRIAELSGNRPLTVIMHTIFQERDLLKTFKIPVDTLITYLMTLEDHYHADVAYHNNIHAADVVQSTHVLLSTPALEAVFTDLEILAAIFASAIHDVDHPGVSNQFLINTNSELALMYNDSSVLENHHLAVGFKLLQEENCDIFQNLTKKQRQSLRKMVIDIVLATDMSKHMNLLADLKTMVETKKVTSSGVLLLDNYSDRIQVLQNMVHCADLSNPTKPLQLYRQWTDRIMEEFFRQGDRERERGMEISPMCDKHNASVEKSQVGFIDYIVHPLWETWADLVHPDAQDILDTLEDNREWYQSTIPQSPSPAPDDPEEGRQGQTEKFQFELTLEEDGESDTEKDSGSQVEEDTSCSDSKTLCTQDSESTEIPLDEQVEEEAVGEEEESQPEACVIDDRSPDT

Compound | IC50 [1, 3] [µM] | IC50 [2, 4] [µM] | IC50 [1] [µM] | IC50 [2] [µM]
COc1ccc(Cc2cccc(OC(N)=O)c2)c(F)c1-c1cccc(Cl)c1 [P-222] | – | – | < 5 | < 5
COc1ccc(CN2CCCC2=O)cc1-c1cccc(SC)c1 [P-245, 1-(6-methoxy-3′-methylsulfanyl-biphenyl-3-ylmethyl)-pyrrolidin-2-one] | 5 to 20 | < 5 | – | –
COc1ccc(Cn2cc(C#N)ccc2=O)cc1-c1cccc([N+](=O)[O-])c1 [P-195, 1-(6-Methoxy-3′-nitro-biphenyl-3-ylmethyl)-6-oxo-1,6-dihydro-pyridine-3-carbonitrile] | 5 to 20 | 21 to 40 | – | –
COc1ccc(COC2CCCC2)nc1-c1cccc([N+](=O)[O-])c1 [P-038, 6-cyclopentyloxymethyl-3-methoxy-2-(3-nitro-phenyl)-pyridine] | 5 to 20 | 21 to 40 | – | –
COc1ccc(Cn2ccccc2=O)cc1-c1cccc(C(C)=O)c1 [P-179, 1-(3′-Acetyl-6-methoxy-biphenyl-3-ylmethyl)-1H-pyridin-2-one] | 5 to 20 | 5 to 20 | – | –
COc1ccc(Cc2ccc(O)cc2)c(F)c1-c1cccc(Cl)c1 [P-216] | < 5 | < 5 | – | –
COc1ccc(Cc2ccc(NS(C)(=O)=O)cc2)c(F)c1-c1cccc(C(C)=O)c1 [P-249] | < 5 | < 5 | – | –
COc1ccc(Cc2ccc(F)cc2)nc1-c1cccc([N+](=O)[O-])c1 [P-023, 6-(4-fluoro-benzyl)-3-methoxy-2-(3-nitro-phenyl)-pyridine] | < 5 | 5 to 20 | – | –
CCNC(=O)Nc1ncc(Cc2ccc(OC)c(-c3cccc(Cl)c3)c2F)cn1 [P-619] | < 5 | < 5 | – | –
CCNC(=O)Nc1ccc(Cc2ccc(OC)c(-c3cccc(-c4nnn[nH]4)c3)c2F)cn1 [P-513, 1-Ethyl-3-{5-[2-fluoro-6-methoxy-3′-(1H-tetrazol-5-yl)-biphenyl-3-ylmethyl]-pyridin-2-yl}-urea] | 5 to 20 | 21 to 40 | – | –
COc1ccc(Cc2ccc(N3CCC3)nc2)c(F)c1-c1cccc(Cl)c1 [P-569, 2-Azetidin-1-yl-5-(3′-chloro-2-fluoro-6-methoxy-biphenyl-3-ylmethyl)-pyridine] | < 5 | < 5 | – | –
O=C1CCCN1Cc1ccc(O)c(-c2cccc([N+](=O)[O-])c2)c1 [P-503, 1-(6-Hydroxy-3′-nitro-biphenyl-3-ylmethyl)-pyrrolidin-2-one] | 5 to 20 | 5 to 20 | – | –
COc1ccc(Cc2ccc(NC(C)=O)cc2)c(O)c1-c1cccc([N+](=O)[O-])c1 [P-190, N-[4-(2-Hydroxy-6-methoxy-3′-nitro-biphenyl-3-ylmethyl)-phenyl]-acetamide] | < 5 | < 5 | – | –
COc1ccc(Cc2ccccc2O)cc1-c1cccc([N+](=O)[O-])c1 [P-105, 2-(6-Methoxy-3′-nitro-biphenyl-3-ylmethyl)-phenol] | < 5 | < 5 | – | –
COc1ccc(Cc2ccc(Cl)nc2)c(O)c1-c1cccc([N+](=O)[O-])c1 [P-126] | < 5 | < 5 | – | –
COc1ccc(Cc2ccc(NCCO)nc2)c(F)c1-c1cccc(Cl)c1 [P-411] | < 5 | < 5 | – | –
NC(=O)Nc1ccc(Cc2ccc(OC(F)F)c(-c3cccc(Cl)c3)c2)cc1 [P-420] | < 5 | < 5 | – | –

Now from value to molecule, other results behind:

IC50 [1, 3] [µM] | IC50 [2, 4] [µM] | Compound | IC50 [1] [µM] | IC50 [2] [µM]
< 5 | < 5 | COc1ccc(Sc2ccc(N)cc2)cc1-c1cccc(Cl)c1 [P-447, 4-(3′-Chloro-6-methoxy-biphenyl-3-ylsulfanyl)-phenylaammonium chloride] | – | –
< 5 | < 5 | CCNC(=O)Nc1ncc(Cc2ccc(OC)c(-c3cccc(C(C)=O)c3)c2F)cn1 [P-315, 1-[5-(3′-Acetyl-2-fluoro-6-methoxy-biphenyl-3-ylmethyl)-pyrimidin-2-yl]-3-ethyl-urea] | – | –
< 5 | < 5 | COc1ccc(Cc2ccc(N(C)C(N)=O)cc2)c(F)c1-c1cccc(C(C)=O)c1 [P-338, 1-[4-(3′-Acetyl-2-fluoro-6-methoxy-biphenyl-3-ylmethyl)-phenyl]-1-methyl-urea] | – | –
< 5 | < 5 | CCN1CCN(Cc2ccc(Cc3ccc(OC)c(-c4cccc(Cl)c4)c3F)cn2)C1=O [P-461, 1-[5-(3′-Chloro-2-fluoro-6-methoxy-biphenyl-3-ylmethyl)-pyridin-2-ylmethyl]-3-ethyl-imidazolidin-2-one hydrochloride] | – | –
< 5 | < 5 | COc1ccc(Cc2ccc(CNC(=O)C(N)=O)nc2)c(F)c1-c1cccc(Cl)c1 [P-521, N-[5-(3′-Chloro-2-fluoro-6-methoxy-biphenyl-3-ylmethyl)-pyridin-2-ylmethyl]-oxalamide] | – | –
< 5 | < 5 | COc1ccc(Cc2ccc(N)nc2)cc1-c1cccc([N+](=O)[O-])c1 [P-111] | – | –
< 5 | 21 to 40 | COc1ccc(CN2CC[C@@H](O)C2)cc1-c1cccc([N+](=O)[O-])c1 [P-071, (R)-1-(6-Methoxy-3′-nitro-biphenyl-3-ylmethyl)-pyrrolidin-3-01] | – | –
< 5 | 21 to 40 | COc1ccc(C(C)(O)c2ccc(NC(C)=O)cc2)c(F)c1-c1cccc(Cl)c1 (racemic) [P-530, N-{4-[1-(3′-Chloro-2-fluoro-6-methoxy-biphenyl-3-yl)-1-hydroxy-ethyl]-phenyl}-acetamide] | – | –
< 5 | < 5 | COc1ccc(Cc2cnc(N3CC(O)C3)nc2)c(F)c1-c1cccc(Cl)c1 [P-393, 1-[5-(3′-Chloro-2-fluoro-6-methoxy-biphenyl-3-ylmethyl)-pyrimidin-2-yl]-azetidin-3-ol] | – | –
< 5 | < 5 | COc1ccc(C(=O)c2ccc(N)cc2)cc1-c1cccc(F)c1 [P-579] | – | –
< 5 | 5 to 20 | COC(=O)c1cccc(-c2cc(Cn3cncn3)ccc2OC)c1 [P-022, 2′-Methoxy-5′-[1,2,4]triazol-1-ylmethyl-biphenyl-3-carboxylic acid methyl ester] | – | –
< 5 | < 5 | CCNC(=O)NCc1ccc(Cc2ccc(OC)c(-c3cccc(Cl)c3)c2F)cn1 [P-372, 1-[5-(3′-Chloro-2-fluoro-6-methoxy-biphenyl-3-ylmethyl)-pyridin-2-ylmethyl]-3-ethyl-urea] | – | –
< 5 | < 5 | COc1ccc(Cc2cnc(N)nc2)c(F)c1-c1cccc(Cl)c1 [P-278] | – | –
< 5 | < 5 | CCOC(=O)Nc1ccc(Cc2ccc(OC)c(-c3cccc(C#N)c3)c2F)cn1 [P-398, [5-(3′-Cyano-2-fluoro-6-methoxy-biphenyl-3-ylmethyl)-pyridin-2-yl]-carbamic acid ethyl ester] | – | –
< 5 | < 5 | CCNc1ccc(Cc2ccc(OC)c(-c3cccc(Cl)c3)c2F)cn1 [P-318] | – | –
< 5 | < 5 | COc1ccc(Cc2nnc(N)s2)c(F)c1-c1cccc(Cl)c1 [P-333, 5-(3′-Chloro-2-fluoro-6-methoxy-biphenyl-3-ylmethyl)-[1,3,4]thiadiazol-2-ylamine] | – | –
< 5 | < 5 | COc1ccc(Cc2ccc(N)cn2)c(F)c1-c1cccc(Cl)c1 [P-478] | – | –
< 5 | < 5 | COc1ccc(Cc2ccc(CNC(N)=O)c(F)c2)c(F)c1-c1cccc(Cl)c1 [P-287] | – | –
< 5 | < 5 | COc1ccc(Cc2ccc(N)cc2)c(F)c1-c1cccc([N+](=O)[O-])c1 [P-136] | – | –
